The values below come from the NIST ThermoML archive (doi:10.1016/j.jct.2015.08.035).

Numbers after ± are expanded uncertainties.

For series [1] the following is noted: Crystal; DTA.
The nature of series [2]: Molar enthalpy of transition or fusion. The following applies: Crystal; DSC.

As to `CC1=C(O)C(=O)C(C)O1` (configuration not stated) [4-hydroxy-2,5-dimethyl-3(2H)-furanone], in series [1], the Normal melting temperature was found to be 82.07 ± 1.1 °C. Further, the “Molar enthalpy of transition or fusion” value in series [2] turned out to be 18.7 ± 1.1 kJ/mol.
